Patent US11478445B2, “Method for treating acute myeloid leukemia” (Bionomics Limited, priority 2017, dated 2022)

Columns and labels:
MV4; 11 AML cell line = assay: MTS proliferation assay, MV4;11; assay type: cell-based
Protocol: The cell lines (MV4; 11 and HL-60) were plated in 96-well plates at 1×10^4 cells/well in 50 uL of complete growth media. Cells were plated in triplicate wells for each dose being tested. EX 1 (in DMSO), Oxi4503 (EndoTherm, Batch #EN09013, in water), CA4P (Selleckchem, Cat #S7204, in water) and Plinabulin (Selleckchem, Cat #S1176, in DMSO) was reconstituted immediately prior to use at 10 mM in appropriate diluent as indicated. The drug was prepared 2× concentrated in media and 50 uL added to respective wells (0.1% DMSO or water, final concentration). After 72 hours, 20 μL of CellTiter 96 AQueous One Solution reagent (Promega cat #G3581) was added to each well and the plate incubated for 2 h at 37° C. before absorbance was measured at 492 nm using a Thermo Multiskan Ascent96/384 Plate Reader.
To compare the efficacy of EX 1 with other tubulin polymerisation inhibitors, MTS proliferation assays were performed on MV4; 11 and HL-60 AML cell lines (Table 1). […] Cells were cultured with the compounds for 72 hours before viability was measured by the addition of CellTiter 96 AQueous One Solution reagent (Promega cat #G3581) and absorbance measured at 492 nm. IC50 was calculated using the absolute IC50 method in GraphPad Prism 6.

[1] = system: Caspase 3/7 activity in primary AML MNC samples; assay: Caspase-Glo 3/7 assay in primary AML samples; assay type: cell-based, human
Protocol: Cryopreserved mononuclear cells (MNC from BM or leukapheresis samples) were thawed in a water bath at 37° C. and cell suspension transferred to a 50 mL tube. 20 mL of IMDM media (Sigma, 13390) supplemented with 20% FBS (JRH Biosciences), 50 U/mL DNase I (Sigma), 100 IU/mL penicillin (Sigma), 100 μg/mL streptomycin (Sigma) and 2 mM L-glutamine (Sigma) was added dropwise to the cells while the tube was being vortexed slowly (or mixed by hand). The cells were centrifuged at 400 g for 5 min, supernatant was discarded and the cells were washed once with 20 mL PBS. […] The next morning, viability was determined by trypan blue exclusion and samples with viability lower than 85% underwent dead cell removal by density gradient centrifugation as follows: 15 mL of Lymphoprep (AXIS-Shield) was transferred to a 50 mL tube and the cell suspension (25 mL) carefully overlayed (so as not to disturb the interface mixing with the Lymphoprep). […] Viability and cell density were determined by trypan blue exclusion and cells were plated for respective experiments as described in the Results section.
10^4 cells (10 μL) of each sample/treatment were aliquoted in triplicate wells of a 96-well plate (white wall OptiPlate 96, Perkin Elmer) containing 40 μL complete media. […] Luminescence was measured with a FLOUstar OPTIMA plate reader (BMG Labtech). […]

IC50 compared with Oxi4503, CA4P and Plinabulin (MV4; 11 AML cell line; MV4;11, 72 h): lowest IC50 | caspase 3/7 activity ([1]; AML480, 24 h): some increase in caspase activity | caspase 3/7 activity compared to DMSO ([1]; all the AML samples, 48 h): increase in caspase activity
Compound: COc1cc(C(=O)c2c(C)oc3c(O)c(OC)ccc23)cc(OC)c1OC [EX 1, 2-Methyl-7-hydroxy-3-(3,4,5-trimethoxybenzoyl)-6-methoxybenzofuran]
potency relative to any other VDAs (times more potent) (MV4; 11 AML cell line; MV4-11, 72 h exposure): at least 10 times
